Data as given in US4242512A, “Novel thioamide derivatives containing a pyridazine group” (Morishita Pharmaceutical Co., Ltd., priority 1979, dated 1980).

What was measured:
[1] = test system: aspirin-induced gastric ulcers in pylorus-ligated rats; assay: Effect on aspirin-induced gastric ulcers in pylorus-ligated rats; format: in vivo; details: for Inhibition (aspirin-induced gastric ulcers): 10 rats; for Inhibition (aspirin-induced gastric ulcers) / ED50: 7 hrs after aspirin 100 mg/kg p.o.; for Safety Margin LD50/ED50 (aspirin-induced ulcers): LD50 mice p.o. / ED50 pylorus-ligated rats i.d., Table 2; for ED50: Rattus norvegicus, i.d., pylorus-ligated rats
Method: (§1) As illustrative evidence of the remarkable high gastric antisecretory activity of the compounds of the invention, tests were conducted on, and comparisons made with, closely similar compounds in the prior art. The following Tables 2 and 3 show the results of such tests according to previously identified techniques from the literature.
Effect on aspirin-induced gastric ulcers in pylorus-ligated
Each drug was given […] intraduodenally (i.d.) immediately after pyloru
ligation in a volume of 0.5 ml/100 g of body weight. Animals were
sacrificed 7 hrs after aspirin (100 mg/kg, p.o.) administration.

Acute toxicity in mice = details: mouse, in vivo, po, Table 2, read-out: LD50 (Table 2, head printed "50 (mg/kg) P.O. Orally")
Method: as §1
rats and acute toxicity in mice.
(§2) Effect on Shay ulceration in rats and acute toxicity in mice.

Shay ulceration in rats = assay: Effect on Shay ulceration in rats; format: in vivo; details: for Inhibition (Shay ulceration): 10 rats; for Inhibition (Shay ulceration) / ED50: 13 hours after drug treatment; for Safety Margin LD50/ED50 (Shay ulceration): LD50 mice p.o. / ED50 Shay rats i.d., Table 3; for ED50: Rattus norvegicus, i.d., rats
Method: as §1, §2
Each drug was given either intraduodenally (i.d.) immediately after
pylorus ligation in a volume of 0.5 ml/100 g of body weight. The animals
were sacrificed 13 hours after drug treatment.

Row | Structure (SMILES) | Inhibition (aspirin-induced gastric ulcers) ([1]; 10 mg/kg i.d.) | Inhibition (aspirin-induced gastric ulcers) ([1]; 30 mg/kg i.d.) | Safety Margin LD50/ED50 (aspirin-induced ulcers) [1] | ED50 [1] | LD50 (Acute toxicity in mice) | Inhibition (Shay ulceration) (Shay ulceration in rats; 10 mg/kg i.d.) | Inhibition (Shay ulceration) (Shay ulceration in rats; 30 mg/kg i.d.) | Safety Margin LD50/ED50 (Shay ulceration) (Shay ulceration in rats) | ED50 (Shay ulceration in rats)
1 | NC(=S)C(c1ccccc1)c1cccnn1 (stereo not drawn) [Ex. 1, 2-Phenyl-2-(3-pyridazinyl)thioacetamide] | 48.6% | 97.7% | 85.12 | 11.5 mg/kg | 980 mg/kg | 33.3% | 95.8% | 78.40 | 12.5 mg/kg
2 | Cc1ccc(C(C(N)=S)c2ccccc2)nn1 (stereo not drawn) [Ex. 2, 2-Phenyl-(6-methyl-3-pyridazinyl)thioacetomide] | 3.2% | 89.0% | 80.95 | 21 mg/kg | 1700 mg/kg | 50.0% | 91.7% | 154.54 | 11 mg/kg
3 | NC(=S)C(c1ccccc1)c1ncccn1 (stereo not drawn) [U.S. Pat. No. 3,624,085 Ex. 9] | 22.3% | 74.0% | 64.86 | 18.5 mg/kg | 1200 mg/kg | 28.2% | 65.0% | 46.15 | 26 mg/kg
4 | NC(=S)C(c1ccccc1)c1cnccn1 (stereo not drawn) [U.S. Pat. No. 3,624,085 Ex. 12] | 15.4% | 50.8% | 30.80 | 30 mg/kg | 924 mg/kg | 18.3% | 57.7% | 33.00 | 28 mg/kg
5 | CCC(C(N)=S)c1ccccn1 (stereo not drawn) [U.S. Pat. No. 3,686,190 Ex. 1] | 11.3% | 45.7% | 12.88 | 52 mg/kg | 670 mg/kg | 12.0% | 46.5% | 17.70 | 34 mg/kg
